Reference: US20110281896A1, “OPTICALLY PURE QUINAZOLINE COMPOUNDS” (Jiangsu Hansoh Pharmaceutical Co. Ltd, priority 2009, published 2011)
pIC50: −log10 of the molar value.

How the values were obtained:
A431 = assay: Antitumor activity in vitro, SRB cell proliferation inhibition; assay type: cell-based; settings: 72 h incubation, Logit method
Experimental: (§1) Evaluation of Antitumor Activity In Vitro
(§2) Cell Strains: A431; MCF-7
(§3) Experiment Design: Cells were incubated with different concentrations of compounds for 72 hours. The inhibition of cell proliferation by the compounds was evaluated by SRB, followed by calculation of the inhibition rate. Then, value of IC50 was calculated by using-Logit method base on the inhibition rate and used to compare in vitro antitumor activity of the compounds.
(§4) Method for Calculating the Inhibition Rate: Inhibition rate (%)=(OD value of control group−OD value of drug group)/OD value of control group×100%

MCF-7 = assay: as above; assay type: cell-based; settings: 72 h incubation, Logit method
Experimental: as §1, §2, §3, §4

[1] = tested on: human lung cancer Calu-3 xenografts; assay: Effect on xenografts in nude mice with lung cancer Calu-3; assay type: in vivo, BALB/cA-nude mice
Experimental: Effect of compound 97(±), compound 97, compound 110 and Lapatinib (positive control) on xenografts in nude mice with lung cancer Calu-3 Remark: “±” means the compound is racemic.
The purpose of the experiment is to evaluate and compare the effect of compound 97(±), compound 97, compound 110, Lapatinib on xenografts in nude mice with lung cancer Calu-3.
BALB/cA-nude mice, 6-7 weeks, ♀, purchased from ShangHai Slac laboratory animal Co., Ltd.
Calu-3 cells were injected subcutaneously into nude mice. Animals were divided into groups (d0) randomly after tumors have grown to 150-300 mm^3. Dosage and dosage regimen design can be seen in table 1. Tumors volume was measured 2-3 times per week. Mice were weighed and data were recorded. Calculation formula for tumor volume (V) is as below:
V=½×a×b^2, wherein, a and b represent length and width respectively.

[2] = xenografts in nude mice, PO QD × 17, 146.7 mg/kg
[3] = Homo sapiens, A-431, A431 cells
[4] = Homo sapiens, MCF7, MCF-7 cells

SMILES	pIC50 (A431; A431 cells)	pIC50 (MCF-7; MCF-7 cells)	pIC50 (A431; [3])	pIC50 (MCF-7; [4])	further results
CN(C)[C@@H](CS(C)(=O)=O)c1ccc(-c2ccc3ncnc(Nc4ccc(OCc5cccc(F)c5)c(Cl)c4)c3c2)o1 [Compound 110, (R)—N-(4-(3-fluorobenzyl-oxy)-3-chlorophenyl)-6-(5-(1-(N,N-dimethyl-amino)-2-(methylsulfonyl)ethyl)-2-yl)quinazolin-4-amine]	6.11	5.25	–	–	Initial Tumor Volume (mm^3) D0 ([1]; D0 = time of first administration (baseline), PO QD × 17, 146.5-146.7 mg/kg, mean): 249.1 mm^3; Final Tumor Inhibition Rate (%) D16 ([1]; D16, PO QD × 17, 146.5-146.7 mg/kg): 77%; % T/C D16 ([1]; D16, PO QD × 17, 146.5-146.7 mg/kg, T, C = mean tumor volume of drug, control group): 23%; Relative Tumor Volume D16 ([1]; D16, PO QD × 17, 146.5-146.7 mg/kg, mean): 0.8; Final Tumor Volume (mm^3) D16 ([1]; D16 = 17th day after administration, PO QD × 17, 146.5-146.7 mg/kg, mean): 187.4 mm^3; The Recession/Group ([1]; number of mice per group of 6, PO QD × 17, 146.5-146.7 mg/kg): 1; inhibition of growth of human lung cancer Calu-3 (in words) ([1]; xenografts in nude mice, PO QD × 17): inhibited the growth of human lung cancer Calu-3 significantly; fraction of the tumors in mice caused to shrink [1, 2]: ⅚; number of mice with tumor shrinking more than 50% in volume [1, 2]: one
CN(C1CC1)[C@H](CS(C)(=O)=O)c1ccc(-c2ccc3ncnc(Nc4ccc(OCc5cccc(F)c5)c(Cl)c4)c3c2)o1 [Compound 96, (S)—N-(4-(3-fluorobenzyl-oxy)-3-chlorophenyl)-6-(5-(1-(cyclopropyl-methyl-amino)-2-(methylsulfonyl)ethyl)furan-2-yl)quinazolin-4-amine]	–	–	6.24	5.17	–
CCCN[C@@H](CS(C)(=O)=O)c1cnc(-c2ccc3ncnc(Nc4ccc(OCc5cccc(F)c5)c(Cl)c4)c3c2)s1 [Compound 121]	6.33	5.19	–	–	–
C=CCN[C@@H](CS(C)(=O)=O)c1cnc(-c2ccc3ncnc(Nc4ccc(OCc5cccc(F)c5)c(Cl)c4)c3c2)s1 [Compound 127]	6.28	5.23	–	–	–
CS(=O)(=O)C[C@H](N)c1cnc(-c2ccc3ncnc(Nc4ccc(OCc5cccc(F)c5)c(Cl)c4)c3c2)s1 [Compound 118, (S)—N-(4-(3-fluorobenzyl-oxy)-3-chlorophenyl)-6-(5-(1-(amino)-2-(methylsulfonyl)ethyl)thiazole-2-yl)quinazolin-4-amine]	–	–	6.28	5.17	–
CON[C@H](CS(C)(=O)=O)c1ccc(-c2ccc3ncnc(Nc4ccc(OCc5cccc(F)c5)c(Cl)c4)c3c2)o1 [Compound 103]	6.32	5.05	–	–	–
CON[C@@H](CS(C)(=O)=O)c1ccc(-c2ccc3ncnc(Nc4ccc(OCc5cccc(F)c5)c(Cl)c4)c3c2)o1 [Compound 116]	6.36	5.32	–	–	–
CN[C@@H](CS(C)(=O)=O)c1cnc(-c2ccc3ncnc(Nc4ccc(OCc5cccc(F)c5)c(Cl)c4)c3c2)s1 [Compound 119]	6.23	5.21	–	–	–
CS(=O)(=O)C[C@H](N)c1ccc(-c2ccc3ncnc(Nc4ccc(OCc5cccc(F)c5)c(Cl)c4)c3c2)o1 [Compound 105, (R)—N-(4-(3-fluorobenzyl-oxy)-3-chlorophenyl)-6-(5-(1-(amino)-2-(methylsulfonyl)ethyl)furan-2-yl)quinazolin-4-amine]	–	–	6.18	5.10	–
C#CCN[C@H](CS(C)(=O)=O)c1cnc(-c2ccc3ncnc(Nc4ccc(OCc5cccc(F)c5)c(Cl)c4)c3c2)s1 [Compound 141]	6.31	5.12	–	–	–
CCCN[C@@H](CS(C)(=O)=O)c1ccc(-c2ccc3ncnc(Nc4ccc(OCc5cccc(F)c5)c(Cl)c4)c3c2)o1 [Compound 108, (R)—N-(4-(3-fluorobenzyl-oxy)-3-chlorophenyl)-6-(5-(1-(propylamino)-2-(methylsulfonyl)ethyl)furan-2-yl)quinazolin-4-amine]	–	–	6.28	5.23	–
C=CCN[C@H](CS(C)(=O)=O)c1cnc(-c2ccc3ncnc(Nc4ccc(OCc5cccc(F)c5)c(Cl)c4)c3c2)s1 [Compound 140]	6.19	5.40	–	–	–
CN[C@@H](CS(C)(=O)=O)c1ccc(-c2ccc3ncnc(Nc4ccc(OCc5cccc(F)c5)c(Cl)c4)c3c2)o1 [Compound 106, (R)—N-(4-(3-fluorobenzyl-oxy)-3-chlorophenyl)-6-(5-(1-(methylamino)-2-(methylsulfonyl)ethyl)furan-2-yl)quinazolin-4-amine]	–	–	6.33	5.11	–
C#CCN[C@H](CS(C)(=O)=O)c1ccc(-c2ccc3ncnc(Nc4ccc(OCc5cccc(F)c5)c(Cl)c4)c3c2)o1 [Compound 102, (S)—N-(4-(3-fluorobenzyl-oxy)-3-chlorophenyl)-6-(5-(1-(propargyl-amino)-2-(methylsulfonyl)ethyl)furan-2-yl)quinazolin-4-amine]	–	–	6.34	5.05	–
CCN[C@H](CS(C)(=O)=O)c1ccc(-c2ccc3ncnc(Nc4ccc(OCc5cccc(F)c5)c(Cl)c4)c3c2)o1 [Compound 94, (S)—N-(4-(3-fluorobenzyl-oxy)-3-chlorophenyl)-6-(5-(1-(ethylamino)-2-(methylsulfonyl)ethyl)furan-2-yl)quinazolin-4-amine]	–	–	6.19	5.10	–
C=CCN[C@@H](CS(C)(=O)=O)c1ccc(-c2ccc3ncnc(Nc4ccc(OCc5cccc(F)c5)c(Cl)c4)c3c2)o1 [Compound 114, (R)—N-(4-(3-fluorobenzyl-oxy)-3-chlorophenyl)-6-(5-(1-(allyl-amino)-2-(methylsulfonyl)ethyl)furan-2-yl)quinazolin-4-amine]	–	–	6.31	5.10	–
CCN(C)[C@@H](CS(C)(=O)=O)c1cnc(-c2ccc3ncnc(Nc4ccc(OCc5cccc(F)c5)c(Cl)c4)c3c2)s1 [Compound 126]	6.31	5.11	–	–	–
CCN(C)[C@H](CS(C)(=O)=O)c1ccc(-c2ccc3ncnc(Nc4ccc(OCc5cccc(F)c5)c(Cl)c4)c3c2)o1 [Compound 100, (S)—N-(4-(3-fluorobenzyl-oxy)-3-chlorophenyl)-6-(5-(1-(N-methyl, N-ethyl-amino)-2-(methylsulfonyl)ethyl)furan-2-yl)quinazolin-4-amine]	–	–	6.31	5.00	–
CN(C)[C@@H](CS(C)(=O)=O)c1cnc(-c2ccc3ncnc(Nc4ccc(OCc5cccc(F)c5)c(Cl)c4)c3c2)s1 [Compound 123]	6.30	5.20	–	–	–

Continued, in another order:

pIC50 (A431; A431 cells)	pIC50 (MCF-7; MCF-7 cells)	pIC50 (A431; [3])	pIC50 (MCF-7; [4])	SMILES	further results
–	–	6.35	5.15	CN(C1CC1)[C@H](CS(C)(=O)=O)c1ccc(-c2ccc3ncnc(Nc4ccc5c(cnn5Cc5cccc(F)c5)c4)c3c2)o1 [Compound 148, (S)—N-(1-(3-fluorobenzyl)-1H-indazol-5-yl)-6-(5-(1-(cyclopropyl-methyl-amino)-2-(methylsulfonyl)ethyl)furan-2-yl)quinazolin-4-amine]	–
–	–	6.20	5.31	C#CCN[C@H](CS(C)(=O)=O)c1ccc(-c2ccc3ncnc(Nc4ccc5c(cnn5Cc5cccc(F)c5)c4)c3c2)o1 [Compound 154, (S)—N-(1-(3-fluorobenzyl)-1H-indazol-5-yl)-6-(5-(1-(propargyl-amino)-2-(methylsulfonyl)ethyl)furan-2-yl)quinazolin-4-amine]	–
–	–	6.46	5.14	CN(C)[C@H](CS(C)(=O)=O)c1ccc(-c2ccc3ncnc(Nc4ccc5c(cnn5Cc5cccc(F)c5)c4)c3c2)o1 [Compound 149, (S)—N-(1-(3-fluorobenzyl)-1H-indazol-5-yl)-6-(5-(1-(N,N-dimethylamino)-2-(methylsulfonyl)ethyl)furan-2-yl)quinazolin-4-amine]	–
6.24	5.19	–	–	CCCN[C@H](CS(C)(=O)=O)c1cnc(-c2ccc3ncnc(Nc4ccc(OCc5cccc(F)c5)c(Cl)c4)c3c2)s1 [Compound 134]	–
–	–	6.31	5.26	CCN[C@H](CS(C)(=O)=O)c1ccc(-c2ccc3ncnc(Nc4ccc5c(cnn5Cc5cccc(F)c5)c4)c3c2)o1 [Compound 146, (S)—N-(1-(3-fluorobenzyl)-1H-indazol-5-yl)-6-(5-(1-(ethylamino)-2-(methylsulfonyl)ethyl)furan-2-yl)quinazolin-4-amine]	–
6.23	5.26	–	–	CCN(CC)[C@H](CS(C)(=O)=O)c1cnc(-c2ccc3ncnc(Nc4ccc(OCc5cccc(F)c5)c(Cl)c4)c3c2)s1 [Compound 137]	–
6.35	5.27	–	–	CN(C)[C@H](CS(C)(=O)=O)c1cnc(-c2ccc3ncnc(Nc4ccc(OCc5cccc(F)c5)c(Cl)c4)c3c2)s1 [Compound 136]	–
6.37	5.34	–	–	CCCN(CCC)[C@H](CS(C)(=O)=O)c1cnc(-c2ccc3ncnc(Nc4ccc(OCc5cccc(F)c5)c(Cl)c4)c3c2)s1 [Compound 138]	–
6.41	5.00	–	–	CN[C@H](CS(C)(=O)=O)c1cnc(-c2ccc3ncnc(Nc4ccc(OCc5cccc(F)c5)c(Cl)c4)c3c2)s1 [Compound 132]	–
